# Measurements taken from US4839374A, “4-((Bicyclic heterocyclyl)-methyl and -hetero)-piperidines” (Janssen Pharmaceutica, N.V., priority 1987, dated 1989).
# Read-outs that look alike come from different tables or passages of the source.
# Tests used:
# [1] = test system: compound 48/80-induced lethality; test: Protection of rats from compound 48/80-induced lethality; format: in vivo, rats of an inbred Wistar strain; details: Rattus norvegicus, 4 h, read-out: Compound 48/80 lethality test in rats ED50, s.c. or p.o. 1 h before compound 48/80 0.5 mg/kg i.v.; protection of 50% of animals, survival after 4 hours
# Procedure, shortened: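 Male inbred Wistar rats (240-260 g), starved overnight, dosed subcutaneously or orally with compound or 0.9% NaCl before compound 48/80 challenge. Survival at 4 hours counted as protection. ED50 in mg/kg is the dose protecting 50% of animals from lethality.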
# effects of serotonin = test: Antagonistic activity on the effects of serotonin in the gastric lesion test (lesions induced by compound 48/80); format: in vivo, rats of a Wistar inbred strain; details: Rattus norvegicus, po, read-out: gastric lesion test ED50
# Protocol: Antagonistic activity on the effects of serotonin in the gastric lesion test.
# The shock, followed by dead, can be avoided if the rats are pretreated with a classical H 1 antagonist.
# Male rats of a Wistar inbred strain, weighing 220-250 g, were starved overnight, water being available ad libitum. The test compounds were administered orally as a solution or as a suspension in aqueous medium. A control rat and a "blank" rat received the test compound. One hour later 5-[4-(diphenylmethyl)1-piperazinylmethyl]-1-methyl-1H-benzimidazole-2-methanol was administered subcutaneously to all rats at the dose of 2.5 mg/kg. […] Four hours after the intravenous injection of compound 48/80, the rats were decapitated and the stomachs were removed. Subsequently the stomachs were inspected for distension and contents (blood, fluid, food) and thoroughly rinsed. The macroscopic lesions were scored from 0 to +++, 0 corresponding to complete absence of visible lesions and the highest score corresponding to reddish rough patches covering more than half the glandular area.
# The second column of tables 1-4 show for a number of compounds of formula (I) the doses (in mg/kg body weight) at which the distension of the stomach as well as the lesions in the glandular area of the stomach are completely absent in 50% of the test rats (ED50 -value).
# [2] = compound 48/80 1 mg/kg i.v., distension and lesions of stomach completely absent in 50% of rats
SMILES,ED50 [1] [mg/kg],ED50 (effects of serotonin) [mg/kg],ED50 (effects of serotonin; [2]) [mg/kg]
"Nc1ccccc1C(=O)NCCN1CCC(Cc2nc3ccccc3n2Cc2cccs2)CC1 [Compound 478, 2-amino-N-[2-[4-[[1-(2-thienylmethyl)-1H-benzimidazol-2-yl]methyl]-1-piperidinyl]ethyl]benzamide]",0.02,0.04,
Fc1ccc(Cn2c(CC3CCN(CCN4CCOCC4)CC3)nc3ccccc32)cc1 [Compound 131],0.02,,0.16
CCOCCN1CCC(Cc2nc3cccnc3n2Cc2ccc(F)cc2)CC1 [Compound 126],0.04,,0.63
"O=C(NCCN1CCC(Cc2nc3ccccc3n2Cc2ccc(F)cc2)CC1)c1cccs1 [Compound 443, N-[2-[4-[[1-[(4-fluorophenyl)methyl]-1H-benzimidazol-2-yl]methyl]-1-piperidinyl]ethyl]-2-thiophenecarboxamide]",0.02,,0.16
Cc1ncsc1CCN1CCC(Cc2nc3ccccc3n2Cc2ccc(F)cc2)CC1 [Compound 182],0.04,,0.63
COc1ccc(CCN2CCC(Cc3nc4cccnc4n3Cc3ccc(F)cc3)CC2)cc1 [Compound 236],0.08,,0.63
Cc1nc2ccccn2c(=O)c1CCN1CCC(Cc2nc3ccccc3n2Cc2ccco2)CC1 [Compound 218],0.04,0.04,
Fc1ccc(Cn2c(CC3CCN(CCNc4ncccn4)CC3)nc3ccccc32)cc1 [Compound 374],0.02,,0.02
Fc1ccc(Cn2c(CC3CCN(C4CCCCC4)CC3)nc3ccccc32)cc1 [Compound 99],0.04,,0.31
"CCNC(=O)NCCN1CCC(Cc2nc3ccccc3n2Cc2ccc(F)cc2)CC1 [Compound 430, N-ethyl-N'-[2-[4-[[1-[(4-fluorophenyl)methyl]-1H-benzimidazol-2-yl]methyl]-1-piperidinyl]ethyl]urea]",0.01,,0.005
Fc1ccc(Cn2c(CC3CCN(CCc4ccccn4)CC3)nc3cccnc32)cc1 [Compound 101],0.02,,0.31
"CN(C)C(=O)NCCN1CCC(Cc2nc3cccnc3n2Cc2ccc(F)cc2)CC1 [Compound 448, N'-[2-[4-[[3-[(4-fluorophenyl)methyl]-3H-imidazo[4,5-b]pyridin-2-yl]methyl]-1-piperidinyl]ethyl]-N,N-dimethylurea]",0.08,,0.16
COc1ccc(CCN2CCC(Cc3nc4ccc(OC)cc4n3Cc3ccc(F)cc3)CC2)cc1 [Compound 273],0.01,,0.31
"Cc1nc2ccccn2c(=O)c1CCN1CCC(Sc2nc3ccccc3n2Cc2ccc(F)cc2)CC1 [Compound 244, 3-[2-[4-[[1-[(4-fluorophenyl)methyl]-1H-benzimidazol-2-yl]thio]-1-piperidinyl]-ethyl]-2-methyl-4H-pyrido[1,2-a]pyrimidin-4-one]",0.16,,0.31
"Cn1cnc([N+](=O)[O-])c1N1CCC(N2CCC(Cc3nc4ccccc4n3Cc3ccc(F)cc3)CC2)CC1 [Compound 380, 4-[[1-[(4-fluorophenyl)methyl]-1H-benzimidazol-2-yl]methyl]-1'-(1-methyl-4-nitro-1H-imidazol-5-yl)-[1,4'-bipiperidine]]",0.31,,0.63
"c1coc(Cn2c(CC3CCN(CCNc4nc5cnccc5[nH]4)CC3)nc3ccccc32)c1 [Compound 418, N-[2-[4-[[1-(2-furanylmethyl)-1H-benzimidazol-2-yl]methyl]-1-piperidinyl]ethyl]-1H-imidazo[4,5-c]pyridin-2-amine]",0.02,0.04,
"CC(C)NC(=O)CCN1CCC(Cc2nc3ccccc3n2Cc2ccc(F)cc2)CC1 [Compound 145, 4-[[1-[(4-fluorophenyl)methyl]-1H-benzimidazol-2-yl]methyl]-N-(1-methylethyl)-1-piperidinepropanamide]",0.02,,0.16

SMILES,ED50 [1] [mg/kg],ED50 (effects of serotonin) [mg/kg],ED50 (effects of serotonin; [2]) [mg/kg]
O=c1[nH]c2ccccc2c(=O)n1CCN1CCC(Cc2nc3ccccc3n2Cc2cccs2)CC1 [Compound 186],0.04,,0.31
c1cnc(NCCN2CCC(Cc3nc4cccnc4n3Cc3cccs3)CC2)nc1 [Compound 342],0.02,,0.16
CN1CCC(Cc2nc3ccccc3n2Cc2ccc(F)cc2)CC1 [Compound 82],0.005,,0.63
"CCCC(=O)c1ccc(OC)c(C(=O)NCCN2CCC(Cc3nc4ccccc4n3Cc3ccc(F)cc3)CC2)c1 [Compound 441, N-[2-[4-[[1-[(4-fluorophenyl)methyl]-1H-benzimidazol-2-yl]methyl]-1-piperidinyl]ethyl]-2-methoxy-5-(1-oxobutyl)benzamide]",0.08,,0.16
S=C=NCCN1CCC(Cc2nc3ccccc3n2Cc2ccco2)CC1 [Compound 399],0.02,0.04,
CCOCCN1CCC(Cc2nc3ccccc3n2Cc2ccc(F)cc2)CC1 [Compound 133],0.02,,0.16
"Fc1ccc(Cn2c(CC3CCN(CCNc4nc5cccnc5s4)CC3)nc3ccccc32)cc1 [Compound 330, N-[2-[4-[[1-[(4-fluorophenyl)methyl]-1H-benzimidazol-2-yl]methyl]-1-piperidinyl]ethyl]thiazolo[5,4-b]pyridin-2-amine]",0.08,,0.16
c1ccc(Cn2c(CC3CCN(CCNc4nccs4)CC3)nc3cccnc32)cc1 [Compound 362],0.08,,0.63
"Oc1nc2cncnc2n1CCN1CCC(Cc2nc3ccccc3n2Cc2ccc(F)cc2)CC1 [Compound 502, 9-[2-[4-[[1-[(4-fluorophenyl)methyl]-1H-benzimidazol-2-yl]methyl]-1-piperidinyl]ethyl]-9H-purin-8-ol]",0.08,,0.16
CC(C)N1CCC(Cc2nc3ccccc3n2Cc2ccccc2)CC1 [Compound 94],0.08,,0.63
COc1ccc(CCN2CCC(Cc3nc4ccc(O)cc4n3Cc3ccc(F)cc3)CC2)cc1 [Compound 276],0.04,,0.31
"O=[N+]([O-])c1cc[n+]([O-])cc1NCCN1CCC(Cc2nc3ccccc3n2Cc2ccc(F)cc2)CC1 [Compound 379, N-[2-[4-[[1-[(4-fluorophenyl)methyl]-1H-benzimidazol-2-yl]methyl]-1-piperidinyl]ethyl]-4-nitro-3-pyridinamine, 1-oxide]",0.08,,0.31
"Oc1ccc(CCN2CCC(Cc3nc4ccc(O)cc4n3Cc3ccc(F)cc3)CC2)cc1 [Compound 505, 1-[(4-fluorophenyl)methyl]-2-[[1-[2-(4-hydroxyphenyl)ethyl]-4-piperidinyl]-methyl]-1H-benzimidazol-6-ol]",0.04,0.04,
CC(C)NC(=O)CN1CCC(Cc2nc3cccnc3n2Cc2ccc(F)cc2)CC1 [Compound 128],0.16,,0.63
S=C=NCCN1CCC(Cc2nc3ccccc3n2Cc2cccs2)CC1 [Compound 397],0.04,0.04,
COc1ccc(CCN2CCC(Cc3nc4cccnc4n3Cc3ccccc3)CC2)cc1 [Compound 198],0.04,0.08,
"c1ccc(Cn2c(CC3CCN(CCNc4nc5cnccc5[nH]4)CC3)nc3ccccc32)cc1 [Compound 422, N-[2-[4-[[1-(phenylmethyl)-1H-benzimidazol-2-yl]methyl]-1-piperidinyl]ethyl]-1H-imidazo[4,5-c]pyridin-2-amine]",0.04,0.04,
